Results from patent US20250255845A1, “USE OF INTERLEUKIN (IL)-17A INHIBITOR IN PREPARATION OF MEDICAMENT FOR TREATING INFLAMMATORY DISEASE” (Xiangnan University, priority 2024, published 2025).

Experiments:
RAW264.7 cells = experiment: CCK-8 cell viability / cytotoxicity; assay type: cell-based, mouse; settings: 24 h
Method: RAW264.7 cell culture: mouse mononuclear macrophages (RAW264.7, ATCC) are cultured in a complete medium containing 10% fetal bovine serum (FBS), 1% double antibodies (penicillin and streptomycin), and 89% DMEM at 37° C. and 5% CO2. In this experiment, RAW264.7 cells from passages 3 to 8 are used for related test. RAW264.7 cells in the logarithmic growth phase were inoculated into a 96-well plate and the cell density was adjusted to 5×10^3 cells/well. After cultured for 24 h, the cells were stably adhered to the wall. The original complete medium was removed and different concentrations of Tan (5, 10, 20, 40, 80, 160, 320 μM) were added to allow treatment with or without LPS (100 ng/ml) for 24 h. Then, 10 μL of CCK-8 solution was added to each well and incubated at 37° C. for 1 h. The OD value of each sample at 450 nm was detected by a microplate reader, and the cell viability was calculated.

IL-17A mRNA = experiment: Real-time fluorescence quantitative PCR, LPS-induced IL-17A mRNA in RAW264.7 cells; assay type: cell-based, mouse
Method: (§1) RAW264.7 cell culture: mouse mononuclear macrophages (RAW264.7, ATCC) are cultured in a complete medium containing 10% fetal bovine serum (FBS), 1% double antibodies (penicillin and streptomycin), and 89% DMEM at 37° C. and 5% CO2. In this experiment, RAW264.7 cells from passages 3 to 8 are used for related test.
(§2) LPS (100 ng/ml) is added for stimulation, with or without Tan, and the cell supernatant is collected to detect the contents of NO, IL-23, IL-17A, TNF-α, and IL-6 in the cell supernatant. The cell lysate is collected and the protein expressions (STAT3, p-STAT3 (Ser727), and p-STAT3 (Tyr705)) are detected by Western blot. Total cell RNA is extracted and real-time fluorescence quantitative polymerase chain reaction (PCR) is conducted to detect the expression levels of IL-23, IL-17A, TNF-α, and IL-6 mRNA.
RAW264.7 cells were inoculated into 6-well plate and the cell density was adjusted to 5.0×10^6 cells/well. After cultured for 24 h, the cells were stably adhered to the wall. The original medium was removed and different concentrations (5, 10, 20, 40 μM) of Tan were added to allow pretreatment for 1 h. LPS (100 ng/mL) was added and continued to be incubated for 24 h. The commercial TRlcom lysis buffer provided by Jianshi Biotech was added to extract total RNA from cells using the centrifugal column method and immediately reverse transcribed into c-DNA. The fluorescence intensity of each sample was detected according to the instructions of the real-time fluorescence quantitative PCR kit and specific primers (Table 1) (cycle conditions: enzyme activation 95° C. for 3 min, 1 cycle; denaturation 95° C. for 15 s, annealing/extension 60° C. for 1 min, 40 cycles). The mRNA expression level of each group was normalized with the GAPDH expression level, and the relative expression of mRNA was calculated using the 2^−ΔΔCt method.

p-STAT3 (Tyr 705) = experiment: Western blot of p-STAT3 (Tyr 705) in LPS-induced RAW264.7 cells; assay type: cell-based, mouse
Method: as §1, §2
(§3) RAW264.7 cells in the logarithmic growth phase were inoculated in 100 mm culture dishes, and the cell density was adjusted to 1.6×10^6 cells/dish. […] The supernatant was collected by centrifugation at 4° C., 12,000 rpm for 5 min, and the protein concentration was determined by BCA method. […] Enhanced Chemiluminescence (ECL) color development was used for detection, and protein band quantification was performed using Image J software.

TNF-α mRNA = experiment: Real-time fluorescence quantitative PCR, LPS-induced TNF-α mRNA in RAW264.7 cells; assay type: cell-based, mouse
Method: as §1, §2
(§4) RAW264.7 cells were inoculated into 6-well plate and the cell density was adjusted to 5.0×10^6 cells/well. […] The fluorescence intensity of each sample was detected according to the instructions of the real-time fluorescence quantitative PCR kit and specific primers (Table 1) (cycle conditions: enzyme activation 95° C. for 3 min, 1 cycle; denaturation 95° C. for 15 s, annealing/extension 60° C. for 1 min, 40 cycles). The mRNA expression level of each group was normalized with the GAPDH expression level, and the relative expression of mRNA was calculated using the 2^−ΔΔCt method.

IL-6 mRNA = experiment: Real-time fluorescence quantitative PCR, LPS-induced IL-6 mRNA in RAW264.7 cells; assay type: cell-based, mouse
Method: as §1, §2, §4

STAT3 = experiment: Western blot of STAT3 in LPS-induced RAW264.7 cells; assay type: cell-based, mouse; settings: 5-40 μM, among treatment groups; P>0.05
Method: as §1, §2, §3

p-STAT3 (Ser 727) = experiment: Western blot of p-STAT3 (Ser 727) in LPS-induced RAW264.7 cells; assay type: cell-based, mouse
Method: as §1, §2
RAW264.7 cells in the logarithmic growth phase were inoculated in 100 mm culture dishes, and the cell density was adjusted to 1.6×10^6 cells/dish. After cultured for 24 h, different concentrations (5, 10, 20, 40 μM) of Tan were added to allow pretreatment for 2 h, and LPS (100 ng/ml) was added to allow incubation for 24 h. The original medium was removed, and the cells were washed 2 times with pre-cooled PBS buffer. Then, protein lysis buffer (300 μL per dish) was added for lysis on ice for 30 min. The supernatant was collected by centrifugation at 4° C., 12,000 rpm for 5 min, and the protein concentration was determined by BCA method. Next, 60 μg of total protein sample was loaded, separated by 10% Sodium Dodecyl Sulfate Polyacrylamide Gel Electrophoresis (SDS-PAGE) gel, and transferred to Polyvinylidene Fluoride (PVDF) membrane by electrophoresis. The membrane was blocked with 5% skim milk at room temperature for 1 h, and 3 mL of GAPDH, STAT3, p-STAT3 (Ser727), and p-STAT3 (Tyr705) antibodies were added and incubated overnight at 4°° C. […] Enhanced Chemiluminescence (ECL) color development was used for detection, and protein band quantification was performed using Image J software.

endothelial cells = settings: CN101947215A; cited from earlier work
[1] = 5-40 μM, 24 h, vs LPS, P<0.001, dose-dependent
[2] = 5-40 μM, vs LPS group, P<0.001, dose-dependent

For `COc1ccc(-c2cc(=O)c3c(OC)c(OC)c(OC)c(OC)c3o2)cc1` [Tan, tangeretin], the “toxicity to RAW264.7 cells (cell viability)” value (RAW264.7 cells; 0-40 μM, P>0.05) was “did not produce significant toxicity”, the “cell viability of RAW264.7 cells” value (RAW264.7 cells; Tan concentration higher than 40 μM, P<0.05) was “decreased” and the “inhibitory effect on IL-17A (FIG. 5B)” value (IL-17A mRNA) was “strong inhibitory effect”. For the same compound, the “inhibitory effect on IL-17A mRNA compared with positive control Clo” value (IL-17A mRNA; 40 μM) was “comparable to that of the positive control Clo”, the “relative expression level of IL-17A mRNA” value (IL-17A mRNA; [1]) was “significantly decreased” and the “suppression of STAT3 phosphorylation (Tyr 705) compared with positive control Clo” value (p-STAT3 (Tyr 705); 40 μM) was “comparable efficacy to the positive control”. The “expression of p-STAT3 (Tyr 705) protein” value (p-STAT3 (Tyr 705); [2]) was “inhibited”, the “inhibitory effect on TNF-α mRNA compared with positive control Clo” value (TNF-α mRNA; 40 μM) was “comparable to that of the positive control Clo” and the “relative expression level of TNF-α mRNA” value (TNF-α mRNA; [1]) was “significantly decreased”. The “inhibitory effect on IL-6 mRNA compared with positive control Clo” value (IL-6 mRNA; 40 μM) was “comparable to that of the positive control Clo”, the “relative expression level of IL-6 mRNA” value (IL-6 mRNA; [1]) was “significantly decreased” and the STAT3 protein expression (STAT3) was “no statistically significant change”. For the same compound, the “suppression of p-STAT3 (Ser 727) relative to p-STAT3 (Tyr 705)” value (p-STAT3 (Ser 727)) was “more pronounced suppression”, the “suppression of STAT3 phosphorylation (Ser 727) compared with positive control Clo” value (p-STAT3 (Ser 727); 40 μM) was “comparable efficacy to the positive control” and the “expression of p-STAT3 (Ser 727) protein” value (p-STAT3 (Ser 727); [2]) was “inhibited”. The “proliferation of endothelial cells / angiogenesis” value (endothelial cells) was “inhibit the proliferation of endothelial cells”.
